The results in this text go back to ChEMBL document CHEMBL3621058, “Synthesis and structure-activity studies of the V-ATPase inhibitor saliphenylhalamide (SaliPhe) and simplified analogs” (Bioorg Med Chem Lett, 2015).

Experiment [1] in a line: Inhibition of purified reconstituted bovine brain V-ATPase. More on the design: species or system Bos taurus.
Experiment [2] relates to HCC4017. Put plainly: Growth inhibition of human HCC4017 cells assessed as reduction in cell viability at 0.1 nM to 10 uM. The class given is functional.
Experiment [3] is described as follows: Inhibition of V-ATPase (unknown origin). Also on record: species or system Homo sapiens.
The species entered for experiment [4] is Bos taurus. Put plainly: Inhibition of purified reconstituted bovine brain V-ATPase at 2 uM.

Active and inactive are the calls of the source. The calls are words filed in the database; no cut-off is given here. Bounds are passed on as bounds.

The IC50 is the concentration at which inhibition is half-maximal. Take `O=C(C#Cc1ccccc1)N/C=C/C[C@H]1C[C@@H](O)CC/C=C/Cc2cc([N+](=O)[O-])ccc2C(=O)O1`: the IC50 in experiment [1] was determined as 300 nM. Also, the “growth inhibition (GI)” value in experiment [2] was “inactive”.
`O=C(C#Cc1ccccc1)N/C=C/C[C@H]1C[C@@H](O)CC/C=C/Cc2cc(F)ccc2C(=O)O1`: the half-maximal inhibitory concentration (IC50) in experiment [1] was determined as 500 nM. Also, the “growth inhibition (GI)” value in experiment [2] was “inactive”.
Turning to `O=C(C#Cc1ccccc1)N/C=C/C[C@H]1C[C@@H](O)CC/C=C/Cc2cccc(F)c2C(=O)O1`, in experiment [1], half-maximal inhibition (IC50) was put at 1000 nM. Moreover, the “growth inhibition (GI)” value in experiment [2] is “inactive”.
In the case of `CC/C=C\C=C/C(=O)N/C=C/C[C@H]1C[C@@H](O)[C@@H](C)C/C=C/Cc2cccc(O)c2C(=O)O1` [SALICYLIHALAMIDE A], the IC50 in experiment [3] is < 1 nM.
The molecule `O=C(C#Cc1ccccc1)N/C=C/C[C@H]1C[C@@H](O)CC/C=C/Cc2cccc([N+](=O)[O-])c2C(=O)O1` returned an IC50 in experiment [1] of 1000 nM. The “growth inhibition (GI)” value in experiment [2] was “inactive”.
`O=C(C#Cc1ccccc1)N/C=C/C[C@H]1C[C@@H](O)CC/C=C/Cc2cccc(O)c2C(=O)O1` returned an IC50 in experiment [1] of 5 nM. For the same molecule, in experiment [2], the “growth inhibition (GI)” value was “Active”.
The matching figures for `C[C@H]1C/C=C/Cc2cccc(O)c2C(=O)O[C@@H](C/C=C/NC(=O)C#Cc2ccccc2)C[C@H]1O` [SALIPHENYLHALAMIDE]: 1 nM and “Active”.
The matching figures for `O=C(C#Cc1ccccc1)N/C=C/C[C@H]1C[C@@H](O)CC/C=C/Cc2cccc(C(F)F)c2C(=O)O1`: 500 nM and “inactive”.
The matching figures for `Nc1cccc2c1C(=O)O[C@@H](C/C=C/NC(=O)C#Cc1ccccc1)C[C@@H](O)CC/C=C/C2`: 300 nM and “inactive”.
Take `O=C(C#Cc1ccccc1)N/C=C/C[C@H]1C[C@@H](O)CC/C=C/Cc2cccc(O)c2C(=O)N1`: in experiment [1], the IC50 was determined as 3 nM. In experiment [2], the “growth inhibition (GI)” value was “Active”.
As to `O=C(C#Cc1ccccc1)N/C=C/C[C@H]1C[C@@H](O)CC/C=C/Cc2cc(O)ccc2C(=O)O1`, in experiment [4], the inhibition entry is “inactive”. Moreover, the “growth inhibition (GI)” value in experiment [2] is “inactive”.
